# Laboratory results taken from ChEMBL document CHEMBL5036313, “Discovery of Novel, Potent Inhibitors of Hydroxy Acid Oxidase 1 (HAO1) Using DNA-Encoded Chemical Library Screening” (J Med Chem, 2021).
# What was measured:
# [1] = Kinetic solubility of the compound at pH 2; type: physicochemical; conditions: buffer, read-out: Kinetic_solubility
# [2] = Metabolic stability in mouse liver microsomes assessed as intrinsic clearance; type: ADME, Microsome; conditions: read-out: CLH
# [3] = Metabolic stability in human liver microsomes assessed as intrinsic clearance; type: ADME, Microsome; conditions: read-out: CLH
# [4] = Kinetic solubility of the compound at pH 7.4; type: physicochemical; conditions: buffer, read-out: Kinetic_solubility
# [5] = AUCinfinity in CD1 mouse at 10 mg/kg, po measured upto 24 hrs; type: ADME, organism-based; design: route oral, dose 10 mg/kg, time <=24; conditions: in vivo
# [6] = Half life in CD1 mouse plasma at 0.3 mg/kg, iv measured upto 8 hrs; type: ADME, organism-based
# [7] = Unbound intrinsic clearance in CD1 mouse plasma at 0.3 mg/kg, iv measured upto 8 hrs; type: ADME, organism-based; conditions: in vivo
# [8] = Oral bioavailability in CD1 mouse at 10 mg/kg measured upto 24 hrs; type: ADME, organism-based; conditions: in vivo
SMILES,solubility kinetic [1] [µM],CLint scaled [2] [mL/min/kg],CLint scaled [3] [mL/min/kg],solubility kinetic [4] [µM],AUC(0-inf) [5] [µM·h],half-life [6] [h],CL free [7] [mL/min/kg],bioavailability [8] [%]
CN(C)c1noc(-c2cccc(CNc3cnc4nn[nH]c4c3)c2O)n1,0.53,1210,55.5,0.59,,,,
Cc1nc(-c2cccc(CNc3ccc4[nH]nc(C(=O)O)c4c3)c2O)sc1C,20,15,21,15,46.1,3.3,4500,19
CN(C)c1noc(-c2cccc(CNc3ccc4[nH]nc(C(=O)O)c4c3)c2)n1,308,2.9,0.5,255,,,,
CC(C)c1noc(-c2cccc(CNc3ccc4[nH]nc(C(=O)O)c4c3)c2O)n1,11,38.1,2.4,227,0.46,0.4,5436,2
CN(C)c1noc(-c2cccc(CNc3ccc4[nH]nc(C(=O)O)c4c3)c2Cl)n1,7,12,5.8,296,,,,
CN(C)c1noc(-c2cccc(CNc3ccc4[nH]nc(C(=O)O)c4c3)c2O)n1,0.4,28.6,6.9,157,11.2,1.8,447,6
CC(C)c1csc(-c2cccc(CN(C)c3ccc4[nH]nc(C(=O)O)c4c3)c2O)n1,175,13,,6,,,,
CC(C)c1coc(-c2cccc(CNc3ccc4[nH]nc(C(=O)O)c4c3)c2O)n1,4,84,,229,,,,
CC(C)c1csc(-c2cccc(CNc3ccc4[nH]nc(C(=O)O)c4c3)c2O)n1,97,8,10,102,,,,
Cc1nc(-c2cccc(CN(C)c3ccc4[nH]nc(C(=O)O)c4c3)c2)sc1C,276,45,,254,,,,
Cc1csc(-c2cccc(CNc3ccc4[nH]nc(C(=O)O)c4c3)c2O)n1,5,34,,44,,,,
CN(C)c1noc(-c2cccc(CN(C)c3ccc4[nH]nc(C(=O)O)c4c3)c2O)n1,16,46,14,135,6.8,3.3,2444,4
